One assay relates to laccase (NS51003). The assay is described as follows: Pulp bleaching with laccase and mediators, delignification measured as change in Kappa number (TAPPI T236 cm-85). Details: species or system Aspergillus. The method, then: Delignification of the pulp was measured as the change in Kappa number according to TAPPI method T236 cm-85. Briefly, a known mass of paper pulp (containing lignin) was reacted with an excess of potassium permanganate in acid solution for a specified period of time to oxidize the lignin. After the reaction, the residual permanganate was determined by titration. The Kappa number was defined as the volume (ml) of 0.1N potassium permanganate consumed by 1 g of moisture-free pulp in 0.5N sulfuric acid after a ten-minute reaction time at 25° C. under conditions such that one-half of the permanganate remains unreacted. A linear relationship with the lignin content of the pulp and the measurement of the Kappa number has been done on samples as low as 300 mg of pulp.
A softwood Kraft pulp, Kappa number 31.0, was treated with a laccase (NS51003) under the following conditions:
The dried pulp was added to 80 ml of 50 mM phosphate, pH 5.5, and disintegrated in a blender. The pulp was then transferred to a 500-ml conical flask and the blender was washed with 20 ml of the same buffer. The washed buffer and the pulp were combined. The mediator was added at 1-4% (w/w, based on the dry pulp) followed by the addition of the laccase. The pH of the pulp mixture was adjusted to 5.5 if needed. […]
The delignification of the pulp was measured as the change in the Kappa number according to TAPPI method T236 cm-85.

Another assay deals with laccase. The assay is described as follows: Chicago Blue assay: mediator-enhanced laccase-catalyzed bleaching of Chicago Blue in solution. In kind it is biochemical, Aspergillus. The following applies: decrease in absorbance of Chicago Blue at 610 nm after 3 min, mediator (0.1 umole/ml); for ΔmA610 (3 min) at pH 5.5: pH 5.5, laccase; for ΔmA610 (3 min) at pH 7.0: pH 7.0, laccase. The method, then: In this example, the pro-oxidants and pro-degradants were tested individually as mediators to enhance laccase-catalyzed bleaching of Chicago Blue in solution. The Chicago Blue Dye, also known as Direct Blue 1 or DB1, is a commonly used assay for the oxidative efficiency of laccase. The Chicago Blue Dye is fully described by Schneider et al. in U.S. Pat. No. 5,885,304, which is hereby incorporated by reference.
Each of the compounds (i.e., potential mediators) was dissolved in water, or in ethanol if the potential mediator was not water soluble, and then mixed with a phosphate buffer and a Chicago Blue solution. A solution of a laccase was added to make up 1 ml of the final solution, containing […] mediator, 20 mM buffer at pH 5.5 or 7.0, 0.1-1% laccase (v/v) and Chicago Blue solution, with absorbance at A610 nm between 0.6 to 0.8. The change in the absorbance at A610 nm was measured immediately using a UV-VIS spectrophotometer (UV-1201, Shimadzu Scientific Instruments) after the enzyme was added. The decrease in absorbance was recorded at 30-second intervals for 5 minutes and was used to estimate the efficiency of the mediator.

Turning to `NC(N)=O` [Urea, urea], the “activity in enhancing bleaching (in words)” value in the assay on laccase (NS51003) (pulp bleaching with laccase, Examples 2-6) is “barely active”. In the assay with laccase, the “ΔmA610 (3 min) at pH 5.5” value came to 1 and the “ΔmA610 (3 min) at pH 7.0” value is 0.

Turning to `O=C1O[C@H]([C@@H](O)CO)C(O)=C1O` [Ascorbic acid, ascorbic acid], in the assay with laccase, the “ΔmA610 (3 min) at pH 5.5” value is 6 and the “ΔmA610 (3 min) at pH 7.0” value is 2.

For the molecule `O=C(O)c1cccnc1` [Nicotinic acid, nicotinic acid], in the assay on laccase, the “ΔmA610 (3 min) at pH 5.5” value is 0 and the “ΔmA610 (3 min) at pH 7.0” value is given as 0.

As to `O=C(O)c1ccccc1O` [Salicylic acid, salicylic acid], the “ΔmA610 (3 min) at pH 5.5” value in the assay with laccase was determined as 11.

For the molecule `On1nnc2ccccc21` [HBT, 1-hydroxybenzotriazole, reference compound], in the assay on laccase (NS51003) (0.1 ml of the 51003 laccase with the mediator), the “Kappa number reduction (in words)” value is “modest Kappa number reduction”.

For the origin of these results see patent US20030094251A1, “Enhancing laccase activity using pro-oxidants and pro-degradants” (priority 2001, published 2003).
